Reference: patent US8039493B2, “Biaryl sulfonamide derivatives” (Hoffmann-La Roche Inc., priority 2008, dated 2011)

Key:
human LXR alpha = biological target: T1, human LXR alpha (Homo sapiens, UniProt Q13133); assay: Radioligand binding assay (scintillation proximity), LXRα-LBD; details: LXRα-LBD on SPA beads, read-out: LXRalpha Binding IC50
T1 construct: human LXR alpha (aa 164 to 447); made in house; host or cells: E. coli BL21 (pLysS)
T1 sequence (Q13133 164-447): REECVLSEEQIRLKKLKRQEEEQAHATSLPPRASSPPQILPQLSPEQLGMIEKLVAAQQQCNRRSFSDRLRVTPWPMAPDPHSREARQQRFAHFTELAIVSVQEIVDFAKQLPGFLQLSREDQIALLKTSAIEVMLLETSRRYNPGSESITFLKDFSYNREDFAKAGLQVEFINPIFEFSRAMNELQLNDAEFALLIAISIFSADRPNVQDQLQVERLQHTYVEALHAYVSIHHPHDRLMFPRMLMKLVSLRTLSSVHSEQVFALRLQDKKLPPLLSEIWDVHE
Experimental: (§1) The following tests were carried out in order to determine the activity of the compounds of the present invention. […] Mammalian expression vectors were constructed to express full-length human LXR alpha and LXR beta. […] To accomplish this, the portions of the sequences encoding the LBDs were amplified from the full-length clones by PCR and then subcloned into the plasmid vectors.
(§2) Induction, expression, and purification of LBD proteins were performed in E. coli strain BL21 (pLysS) cells by standard methods (Ref: Current Protocols in Molecular Biology, Wiley Press, edited by Ausubel et al).
(§3) Radioligand Binding Assay
(§4) LXR alpha and LXR beta receptor binding were assayed in buffer consisting of 50 mM HEPES, pH 7.4, 10 mM NaCl, 5 mM MgCl2. For each 96-well reaction, 500 ng of LXRα-LBD or 700 ng of LXR beta-LBD proteins were bound to 80 μg or 40 μg SPA beads respectively, in a final volume of 50 μl by shaking. The resulting slurry was incubated for 1 h at RT and centrifuged for 2 min at 1300×g. The supernatant containing unbound protein was removed, and the semi-dry pellet containing the receptor-coated beads was re-suspended in 50 μl of buffer. Radioligand (eg. 100,000 dpm of (N-(2,2,2-trifluoroethyl)-N-[4-(2,2,2-trifluoro-1-hydroxy-1-trifluoromethylethyl)-phenyl]-benzenesulfonamide)) was added, and the reaction incubated at RT for 1 h in the presence of test compounds, and then scintillation proximity counting was performed. All binding assays were performed in 96-well plates and the amount of bound ligand was measured on a Packard TopCount using OptiPlates (Packard). Dose response curves were measured within a range of concentration from 10^−10 M to 10^−4 M.

human LXR beta = biological target: T2, human LXR beta (Homo sapiens, UniProt P55055); assay: Radioligand binding assay (scintillation proximity), LXR beta-LBD; details: LXR beta-LBD on SPA beads, read-out: LXRbeta Binding IC50
T2 construct: human LXR beta (aa 155 to 460); made in house; host or cells: E. coli BL21 (pLysS)
T2 sequence (P55055 155-460): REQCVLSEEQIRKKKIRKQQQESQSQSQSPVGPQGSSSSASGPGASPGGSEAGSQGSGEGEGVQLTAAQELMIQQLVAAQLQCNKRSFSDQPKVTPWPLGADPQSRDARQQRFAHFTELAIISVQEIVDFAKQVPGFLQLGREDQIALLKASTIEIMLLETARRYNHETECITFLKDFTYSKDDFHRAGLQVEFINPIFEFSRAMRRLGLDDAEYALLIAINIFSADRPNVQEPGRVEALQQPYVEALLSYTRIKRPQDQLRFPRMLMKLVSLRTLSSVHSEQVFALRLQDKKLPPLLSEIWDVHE
Experimental: as §1, §2, §3, §4

Row | SMILES | IC50 (human LXR alpha) [nM] | IC50 (human LXR beta) [nM]
1 | CS(=O)(=O)c1cccc(-c2ccc(CN(Cc3ccccc3)S(=O)(=O)c3ccccc3C(F)(F)F)s2)c1 [Example 1, N-Benzyl-N-[5-(3-methanesulfonyl-phenyl)-thiophen-2-ylmethyl]-2-trifluoromethyl-benzenesulfonamide] | 205 | 165
2 | CS(=O)(=O)Nc1cccc(-c2ccc(CN(Cc3ccccc3)S(=O)(=O)c3ccccc3C(F)(F)F)s2)c1 [Example 2, N-Benzyl-N-[5-(3-methanesulfonylamino-phenyl)-thiophen-2-ylmethyl]-2-trifluoromethyl-benzenesulfonamide] | 170 | 126
3 | CS(=O)(=O)c1cccc(-c2ccc(CN(Cc3ccccc3)S(=O)(=O)c3ccccc3Cl)s2)c1 [Example 4, N-Benzyl-2-chloro-N-[5-(3-methanesulfonyl-phenyl)-thiophen-2-ylmethyl]-benzenesulfonamide] | 685 | 123
4 | CC(C)CN(Cc1ccc(-c2cccc(S(C)(=O)=O)c2)s1)S(=O)(=O)c1cccc(Cl)c1 [Example 8, 3-Chloro-N-isobutyl-N-[5-(3-methanesulfonyl-phenyl)-thiophen-2-ylmethyl]-benzenesulfonamide] | 925 | 560
5 | CS(=O)(=O)c1cccc(-c2ccc(CN(C(=O)c3ccccc3)S(=O)(=O)c3cccc(Cl)c3)s2)c1 [Example 9, N-Benzoyl-3-chloro-N-[5-(3-methanesulfonyl-phenyl)-thiophen-2-ylmethyl]-benzenesulfonamide] | 2140 | 980
6 | CC(C)CN(Cc1cnc(-c2cccc(S(C)(=O)=O)c2)s1)S(=O)(=O)c1ccccc1Cl [Example 11, 2-Chloro-N-isobutyl-N-[2-(3-methanesulfonyl-phenyl)-thiazol-5-ylmethyl]-benzenesulfonamide] | 8780 | 170
7 | CS(=O)(=O)c1cccc(-c2ncc(CN(C(=O)c3ccccc3)S(=O)(=O)c3ccccc3Cl)s2)c1 [Example 12, N-Benzoyl-2-chloro-N-[2-(3-methanesulfonyl-phenyl)-thiazol-5-ylmethyl]-benzenesulfonamide] | 27300 | 120
8 | CC(C)CN(Cc1cc(-c2cccc(S(C)(=O)=O)c2)cs1)S(=O)(=O)c1ccccc1Cl [Example 14, 2-Chloro-N-isobutyl-N-[4-(3-methanesulfonyl-phenyl)-thiophen-2-ylmethyl]-benzenesulfonamide] | 68 | 2.2
9 | CC(C)CN(Cc1ccc(-c2cccc(S(C)(=O)=O)c2)s1)S(C)(=O)=O [Example 15, N-Isobutyl-N-[5-(3-methanesulfonyl-phenyl)-thiophen-2-ylmethyl]-methanesulfonamide] | 48700 | 7060
10 | CCS(=O)(=O)N(Cc1ccc(-c2cccc(S(C)(=O)=O)c2)s1)CC(C)C [Example 16, Ethanesulfonic acid isobutyl-[5-(3-methanesulfonyl-phenyl)-thiophen-2-ylmethyl]-amide] | 25000 | 2860
11 | CC(C)CN(Cc1ccc(-c2cccc(S(C)(=O)=O)c2)s1)S(=O)(=O)c1ccccc1F [Example 17, 2-Fluoro-N-isobutyl-N-[5-(3-methanesulfonyl-phenyl)-thiophen-2-ylmethyl]-benzenesulfonamide] | 2210 | 28
12 | CC(C)CN(Cc1ccc(-c2cccc(S(C)(=O)=O)c2)s1)S(=O)(=O)c1c(Cl)cccc1Cl [Example 18, 2,6-Dichloro-N-isobutyl-N-[5-(3-methanesulfonyl-phenyl)-thiophen-2-ylmethyl]-benzenesulfonamide] | 1440 | 82
13 | CC(C)CN(Cc1ccc(-c2cccc(S(C)(=O)=O)c2)s1)S(=O)(=O)C(F)(F)F [Example 20, Trifluoro-N-isobutyl-N-[5-(3-methanesulfonyl-phenyl)-thiophen-2-ylmethyl]-methanesulfonamide] | 3750 | 270
14 | CC(C)CN(Cc1ccc(-c2cccc(S(C)(=O)=O)c2)s1)S(=O)(=O)c1cccc(Cl)c1F [Example 22, 3-Chloro-2-fluoro-N-isobutyl-N-[5-(3-methanesulfonyl-phenyl)-thiophen-2-ylmethyl]-benzenesulfonamide] | 1380 | 22.5
15 | COc1ccc(Cl)cc1S(=O)(=O)N(Cc1ccc(-c2cccc(S(C)(=O)=O)c2)s1)CC(C)C [Example 23, 5-Chloro-N-isobutyl-N-[5-(3-methanesulfonyl-phenyl)-thiophen-2-ylmethyl]-2-methoxy-benzenesulfonamide] | 1520 | 19
16 | CCCCS(=O)(=O)N(Cc1ccc(-c2cccc(S(C)(=O)=O)c2)s1)CC(C)C [Example 25, Butane-1-sulfonic acid isobutyl-[5-(3-methanesulfonyl-phenyl)-thiophen-2-ylmethyl]-amide] | 2750 | 80
17 | CC(C)CN(Cc1ccc(-c2cccc(S(C)(=O)=O)c2)s1)S(=O)(=O)c1ccccc1C#N [Example 26, 2-Cyano-N-isobutyl-N-[5-(3-methanesulfonyl-phenyl)-thiophen-2-ylmethyl]-benzenesulfonamide] | 15900 | 98

The remaining molecules from weak to strong by IC50 (human LXR alpha), led by results:

Row | IC50 (human LXR alpha) [nM] | IC50 (human LXR beta) [nM] | SMILES
18 | 5720 | 5410 | CS(=O)(=O)c1cccc(-c2nnc(CN(Cc3ccccc3)S(=O)(=O)c3ccccc3C(F)(F)F)o2)c1 [Example 3, N-Benzyl-N-[5-(3-methanesulfonyl-phenyl)-[1,3,4]oxadiazol-2-ylmethyl]-2-trifluoromethyl-benzenesulfonamide]
19 | 4280 | 1510 | CS(=O)(=O)c1cccc(-c2ccc(CN(Cc3ccccc3)S(=O)(=O)c3cccc(Cl)c3)s2)c1 [Example 7, N-Benzyl-3-chloro-N-[5-(3-methanesulfonyl-phenyl)-thiophen-2-ylmethyl]-benzenesulfonamide]
20 | 3490 | 40.5 | CC(C)CN(Cc1ccc(-c2cccc(S(C)(=O)=O)c2)o1)S(=O)(=O)c1ccccc1Cl [Example 13, 2-Chloro-N-isobutyl-N-[5-(3-methanesulfonyl-phenyl)-furan-2-ylmethyl]-benzenesulfonamide]
21 | 2700 | 56.5 | CS(=O)(=O)c1cccc(-c2ncc(CN(Cc3ccccc3)S(=O)(=O)c3ccccc3Cl)s2)c1 [Example 10, N-Benzyl-2-chloro-N-[2-(3-methanesulfonyl-phenyl)-thiazol-5-ylmethyl]-benzenesulfonamide]
22 | 2630 | 59 | COC(=O)c1ccccc1S(=O)(=O)N(Cc1ccc(-c2cccc(S(C)(=O)=O)c2)s1)CC(C)C [Example 19, 2-{Isobutyl-[5-(3-methanesulfonyl-phenyl)-thiophen-2-ylmethyl]-sulfamoyl}-benzoic acid methyl ester]
23 | 1570 | 46 | CS(=O)(=O)c1cccc(-c2ccc(CN(C(=O)c3ccccc3)S(=O)(=O)c3ccccc3Cl)s2)c1 [Example 6, N-Benzoyl-2-chloro-N-[5-(3-methanesulfonyl-phenyl)-thiophen-2-ylmethyl]-benzenesulfonamide]
24 | 1170 | 102 | CC(C)CN(Cc1ccc(-c2cccc(S(C)(=O)=O)c2)s1)S(=O)(=O)c1ccccc1Cl [Example 5, 2-Chloro-N-isobutyl-N-[5-(3-methanesulfonyl-phenyl)-thiophen-2-ylmethyl]-benzenesulfonamide]
25 | 605 | 140 | CC(C)CN(Cc1ccc(-c2cccc(S(C)(=O)=O)c2)s1)S(=O)(=O)c1cccs1 [Example 21, Thiophene-2-sulfonic acid isobutyl-[5-(3-methanesulfonyl-phenyl)-thiophen-2-ylmethyl]-amide]
26 | 165 | 28.5 | Cc1ccc(F)cc1S(=O)(=O)N(Cc1ccc(-c2cccc(S(C)(=O)=O)c2)s1)CC(C)C [Example 24, 5-Fluoro-N-isobutyl-N-[5-(3-methanesulfonyl-phenyl)-thiophen-2-ylmethyl]-2-methyl-benzenesulfonamide]
